The record followed here is patent US10596267B2, “Method and process for quantitative evaluation of pharmacokinetics, therapeutic effects and safety of delivery of drug compounds to the inner ear for treatment of auditory disease” (The Charles Stark Draper Laboratory, Inc., priority 2016, dated 2020).

For the data set, the system named is guinea pig cochleae. Nature of the data set: Reciprocating inner ear delivery of DNQX by micropump via cochleostomy; CAP and DPOAE hearing measurements. The note with it: pump infusion via cochleostomy at the basal turn.

Procedure: Infusion began at t=0. A hearing threshold is the minimum sound pressure level (measured in dB SPL) required to generate a response. Data reported are threshold shifts, the change in threshold as compared to baseline. […] CAP amplitudes are also shown, with a legend that is on a log scale.
Reciprocating inner ear delivery and electronically-controlled dosing in a guinea pig model using a pump to infuse a drug via a cochleostomy (made at the basal turn) was evaluated. The drug reservoir was loaded with the glutamate receptor antagonist DNQX (which disrupts hair-cell-to-auditory-nerve synaptic transmission resulting in attenuation of compound action potentials (CAPs) generated in response to auditory stimuli). The molecular weight (232 Daltons) and physicochemical characteristics of DNQX make it a suitable model for evaluating the potential of other small molecule candidates for inner ear delivery. […] DPOAE responses from hair cells (which are not altered by DNQX) were monitored as a control for nonspecific effects.
In the experiments described herein, drug concentration was not measured directly, but was inferred by mapping the drug-mediated CAP inhibition along the length of the ST to calculate drug concentrations at a given location.

Take `O=[N+]([O-])c1cc2nc(O)c(O)nc2cc1[N+](=O)[O-]` [DNQX]: the “DPOAE over time (control for nonspecific effects, mechanical damage or conductive hearing loss)” value is recorded as “lack of alterations in DPOAE over time”. Besides, the “compound action potential (CAP) after initiation of drug delivery” value (tone-pip-evoked CAP) was “reduction in CAP”.
